In patent US5981774A, “Compounds for the treatment of hepatoma” (National Science Council, priority 1993, dated 1999):
Converted amounts (≈) assume the structure as drawn.

Legend:
KB cells [1] = assay: microassay for anticellular effect (cytotoxicity, ED50), KB cells; type: cell-based, human; conditions: for IC50: Homo sapiens, 96 h; for inhibitory activity in words (KB): KB cells in vitro
Experimental: (§1) The name PLC/PRF/5 designates human primary liver cancer cells; the symbol KB designates epidermoid carcinoma cells.
(§2) PLC/PRF/5 cells were isolated from human hepatoma and are known to produce HBs Ag continuously in culture fluids. The cells were grown as continuous cultures in a growth medium consisting of Dulbecco's modified Eagle medium (DMEM, GIBCO, Grand Island, N.Y.), 10% fetal bovin serum (FBS, GIBCO), 100 IU/ml penicillin, 100 µg/ml streptomycin and 2 mM L-glutamine. The KB cells were maintained on DMEM containing 10% FBS L-glutamine and antibiotics. For the microassay, the growth medium was supplemented further with 10 mM Hepes buffer, pH 7.3.
(§3) The ED50 values were calculated from a semilog plot of the drug concentration vs. the percentage of viable cells on day 4.

[2] = tested on: human hepatoma PLC/PRF/5 cells; assay: microassay for anticellular effect (cytotoxicity, ED50), PLC/PRF/5 cells; type: cell-based; conditions: for IC50: Homo sapiens; for IC50 / ED50 (PLC/PRF/5): PLC/PRF/5 cells, % viable cells on day 4, n = 8, significant activity requires ED50 < 4.0 ug/ml; for inhibitory activity in words (PLC/PRF/5): human hepatoma PLC/PRF/5 cells in vitro
Experimental: as §1, §2, §3

[3] = tested on: epidermis carcinoma KB cells; assay: Inhibition of Macromolecular Synthesis ([3H]-thymidine, -uridine or -methionine incorporation), KB cells; type: cell-based, human; conditions: for effects on DNA, RNA and protein synthesis (KB): FIGS. 2, 4, 6
Experimental: (§4) The activity of compounds 16, 17 and 21 on macromolecular synthesis were determined by measuring the isotopic incorporation of [^3 H]-thymidine, -uridine and -methionine in the human PLC/PRF/5 and KB cells respectively.
(§5) PLC/PRF/5 cells were obtained from human hepatoma and are known to produce HBs Ag continuously in culture fluids. Human hepatoma PLC/PRF/5 and epidermis carcinoma KB cells were maintained in Dulbeceo's modified Eagle medium (DMEM, Gibco BRL Grand Island, N.Y., U.S.A.), containing 10% fetal bovine serum (FBS, Gibco BRL), 2 mM L-glutamine, 100 units mL-1 penicillin, 100 μg mL-l streptomycin. The 212 cells were maintained in Minimum essential alpha medium (MEM, Gibco BRL), containing 10% calf serum (Gibco BRL). For microassay, the growth medium was supplemented with 10 mM HEPES buffer, pH 7.3 and incubated at 37° C. in a CO2 incubation.
(§6) Inhibition of Macromolecular Synthesis. The synthesis of macromolecules were measured by the incorporation of ^3 H-thymidine, -uridine or -methionine (New England) Nuclear, Boston, Mass., USA) into the tumor cells. Briefly, the tumor cell (1 1.5×10^4 /100 μl/well) maintained in growth medium with or without drugs in microplates were incubated at 37° C. The cells after pulsed labeling with [^3 H]-thymidine, -uridine, or -methionine for 18 hrs at day 4 post-treatment were harvested and loaded onto glass filter paper (Skatron. Va., USA). The incorporation activities of the cells were measured by the liquid scintillation counter (LS-5000 TA, Beckman Calif., USA). All treatments were conducted in quadruplicate and the mean values were used for analysis. Each experiment was repeated at least 3 times. The data shown are mean counts per minute (CPM)±SEM. Percent inhibition of [^3 H]-thymidine, -uridine, or -methionine incorporation was calculated as follows: [formula]

human PLC/PRF/5 cells = assay: Inhibition of Macromolecular Synthesis ([3H]-thymidine, -uridine or -methionine incorporation), PLC/PRF/5 cells; type: cell-based; conditions: for dependence of inhibition of macromolecular biosynthesis on concentration and time (PLC/PRF/5): PLC/PRF/5 cells; for effects on DNA, RNA and protein synthesis (PLC/PRF/5): human PLC/PRF/5 cells, FIGS. 1, 3, 5; for suppression of cellular DNA, RNA and protein synthesis: overall conclusion, cell line not stated
Experimental: as §4, §5, §6

leukemia cells = conditions: Habib et al., 1987; cited from earlier work
KB cells [4] = conditions: KB cells in vitro; Lin et al., 1991, 1992; cited from earlier work
[5] = tested on: human hepatoma PLC/PRF/5 cells; conditions: human hepatoma PLC/PRF/5 cells in vitro; Lin et al., 1991, 1992; cited from earlier work
[6] = KB cells, % viable cells on day 4, n = 8, significant activity requires ED50 < 4.0 ug/ml

## O=c1c2cccc(OCC3CO3)c2oc2cc(OCC3CO3)cc(O)c12 (stereo not shown) [Compound 21, 3,5-di(2,3-epoxypropoxy)-1-hydroxyxanthone]
KB cells [1]; [6]
  IC50: 0.089 µg/mL (≈ 0.25 µM)
KB cells [1]
  inhibitory activity in words (KB): significant novel inhibitory activity
[2]; 96 h
  IC50: 0.061 µg/mL (≈ 0.171 µM)
[2]
  inhibitory activity in words (PLC/PRF/5): significant novel inhibitory activity
[3]
  dependence of inhibition of macromolecular biosynthesis on concentration and time (KB): only correlated with the concentration of drug treatment
  effects on DNA, RNA and protein synthesis (KB): not apparent
Human PLC/PRF/5 cells
  dependence of inhibition of macromolecular biosynthesis on concentration and time (PLC/PRF/5): correlated with the concentration and the period of drug treatment
  effects on DNA, RNA and protein synthesis (PLC/PRF/5): effects are significant at low concentration
  suppression of cellular DNA, RNA and protein synthesis: suppress cellular DNA, RNA and protein synthesis

## 3',4'-deoxy-4'-chloropsorspermin-3'-ol
Leukemia cells
  cytotoxic effects against leukemia cells: strong cytotoxic effects

## O^5 -methyl-3',4'-deoxypsorospermin-3'-ol
Leukemia cells
  cytotoxic effects against leukemia cells: strong cytotoxic effects

## 3',4'-deoxy-psorospermin
Leukemia cells
  cytotoxic effects against leukemia cells: strong cytotoxic effects

## CC(C)=CC1Oc2cc(O)ccc2-c2oc3cc(O)c(/C=C/C(C)C)c(O)c3c(=O)c21 (stereo not shown) [cyclocommunin]
KB cells [4]
  cytotoxic effects (KB), isolated natural compounds: exhibited cytotoxic effects
[5]
  cytotoxic effects (PLC/PRF/5), isolated natural compounds: exhibited cytotoxic effects

## CC(C)=CC1Oc2cc(O)ccc2-c2oc3cc(O)cc(O)c3c(=O)c21 (stereo not shown) [cyclocommunol]
KB cells [4]
  cytotoxic effects (KB), isolated natural compounds: exhibited cytotoxic effects
[5]
  cytotoxic effects (PLC/PRF/5), isolated natural compounds: exhibited cytotoxic effects

## C=C(C)C1Cc2c(oc3c4c(cc(O)c3c2=O)OC(C)(C)C=C4)-c2c(O)cc(OC)c(O)c21 (stereo not shown) [artomunoxanthone]
KB cells [4]
  cytotoxic effects (KB), isolated natural compounds: exhibited cytotoxic effects
[5]
  cytotoxic effects (PLC/PRF/5), isolated natural compounds: exhibited cytotoxic effects

## O=c1c2ccc(OCC3CO3)cc2oc2cc(OCC3CO3)ccc12 (stereo not shown) [Compound 17, 3,6-di(2,3-epoxypropxy)xanthone]
KB cells [1]; [6]
  IC50: 0.11 µg/mL (≈ 0.323 µM)
[2]; 96 h
  IC50: 0.24 µg/mL (≈ 0.705 µM)
[3]
  dependence of inhibition of macromolecular biosynthesis on concentration and time (KB): only correlated with the concentration of drug treatment
  effects on DNA, RNA and protein synthesis (KB): not apparent
Human PLC/PRF/5 cells
  dependence of inhibition of macromolecular biosynthesis on concentration and time (PLC/PRF/5): correlated with the concentration and the period of drug treatment
  effects on DNA, RNA and protein synthesis (PLC/PRF/5): effects are significant at low concentration
  suppression of cellular DNA, RNA and protein synthesis: suppress cellular DNA, RNA and protein synthesis

## O=c1c2ccccc2oc2cc(O)ccc12 [Compound 13, 3-hydroxyxanthone]
KB cells [1]; [6]
  IC50: 0.77 µg/mL (≈ 3.63 µM)
KB cells [1]
  inhibitory activity in words (KB): significant and potent inhibitory activity
[2]; PLC-PRF-5, 96 h
  IC50: 3.73 µg/mL (≈ 17.6 µM)
[2]; 5760 min
  ED50 (PLC/PRF/5): 3.75 µg/mL (≈ 17.7 µM)
[2]
  inhibitory activity in words (PLC/PRF/5): significant and potent inhibitory activity

## artomunoxanth-otrione epoxide
KB cells [4]
  cytotoxic effects (KB), isolated natural compounds: exhibited cytotoxic effects
[5]
  cytotoxic effects (PLC/PRF/5), isolated natural compounds: exhibited cytotoxic effects

## dihydrocyclo-artomunin
KB cells [4]
  cytotoxic effects (KB), isolated natural compounds: exhibited cytotoxic effects
[5]
  cytotoxic effects (PLC/PRF/5), isolated natural compounds: exhibited cytotoxic effects

## O=c1c2ccccc2oc2cc(OCC3CO3)ccc12 (stereo not shown) [Compound 14, 3-(2,3-Epoxypropoxy)xanthone]
KB cells [1]; [6]
  IC50: 0.85 µg/mL (≈ 3.17 µM)
[2]; 96 h
  IC50: 1.43 µg/mL (≈ 5.33 µM)
[2]
  inhibitory activity in words (PLC/PRF/5): enhanced very markedly the inhibitory effects

## cyclo-mulberrin
KB cells [4]
  cytotoxic effects (KB), isolated natural compounds: exhibited cytotoxic effects
[5]
  cytotoxic effects (PLC/PRF/5), isolated natural compounds: exhibited cytotoxic effects

## COc1cc2c(c3oc4c(O)cccc4c(=O)c13)C[C@H]([C@@]1(C)CO1)O2 [Psorospermin]
Leukemia cells
  cytotoxic effects against leukemia cells: strong cytotoxic effects

## COc1cc2c(cc1O)-c1oc3c4c(cc(O)c3c(=O)c1C(C=C(C)C)O2)OC(C)(C)C=C4 (stereo not shown) [cycloartomunin]
KB cells [4]
  cytotoxic effects (KB), isolated natural compounds: exhibited cytotoxic effects
[5]
  cytotoxic effects (PLC/PRF/5), isolated natural compounds: exhibited cytotoxic effects

## 3',4'=deoxypsorospermin-3',4'-diol
Leukemia cells
  cytotoxic effects against leukemia cells: strong cytotoxic effects

## dihydroisocycloartomunin
KB cells [4]
  cytotoxic effects (KB), isolated natural compounds: exhibited cytotoxic effects
[5]
  cytotoxic effects (PLC/PRF/5), isolated natural compounds: exhibited cytotoxic effects

## N.N.[Cl][Pt][Cl] [Cisplatin, reference compound]
KB cells [1]; [6]
  ED50 (KB): 0.16 µg/mL
[2]
  ED50 (PLC/PRF/5): 5.29 µg/mL

## O=c1c2ccc(OCC3CO3)cc2oc2ccc(OCC3CO3)cc12 (stereo not shown) [Compound 16, 2,6-di(2,3-epoxypropoxy) xanthone]
KB cells [1]; [6]
  IC50: 0.0043 µg/mL (≈ 0.0126 µM)
KB cells [1]
  inhibitory activity in words (KB): more potent inhibitory activity
KB cells [1]; KB cells, versus cisplatin
  ED50 potency relative to cisplatin (KB): over 40 times
[2]; 96 h
  IC50: 0.23 µg/mL (≈ 0.676 µM)
[3]
  dependence of inhibition of macromolecular biosynthesis on concentration and time (KB): only correlated with the concentration of drug treatment
  effects on DNA, RNA and protein synthesis (KB): not apparent
Human PLC/PRF/5 cells
  dependence of inhibition of macromolecular biosynthesis on concentration and time (PLC/PRF/5): correlated with the concentration and the period of drug treatment
  effects on DNA, RNA and protein synthesis (PLC/PRF/5): effects are significant at low concentration
  suppression of cellular DNA, RNA and protein synthesis: suppress cellular DNA, RNA and protein synthesis

## CC(C)=CC1Oc2cc(O)ccc2-c2oc3c4c(cc(O)c3c(=O)c21)OC(C)(C)C=C4 (stereo not shown) [cyclomorusin]
KB cells [4]
  cytotoxic effects (KB), isolated natural compounds: exhibited cytotoxic effects
[5]
  cytotoxic effects (PLC/PRF/5), isolated natural compounds: exhibited cytotoxic effects
